Measurements taken from publication PMC6600393, “Synthesis and Cytostatic Effect of 3’-deoxy-3’-C-Sulfanylmethyl Nucleoside Derivatives with D-xylo Configuration” (Molecules, 2019).
“Also recorded” adds a separate entry of the source.

Tests used:
[1] = system: SCC-VII (mouse squamous carcinoma) cell line; test: MTT cell viability assay on SCC-VII cells; assay type: cell-based; conditions: for SCC IC50: MTT, 48 h incubation, 5000 cells/well, '-' = no cytotoxicity at 20 µg/mL; for IC50: Mus musculus, 48 h; for SI (selectivity index): HaCaT IC50/SCC IC50
Procedure: (§1) For the investigation of the cytotoxic effect of nucleoside analogues we used healthy human keratinocyte (HaCaT) and tumorous squamous carcinoma SCC-VII cell lines. In the experiments, a standard citotoxicity assay, the MTT assay, was used in a 96-well plate. Importantly, different cell numbers were used in the case of the two different cell lines. The HaCaT cells were seeded 10^4/well concentration while the SCC-VII cells were seeded 5000/well concentration on the plate. In both cases the cells were treated with the nucleoside analogues at ~50% confluence.
SCC-VII is a carcinoma tumor that originally arose in the abdominal wall of C3H mice in Dr. Herman Suit’s laboratory at Harvard University, Boston, Massachusetts. SCC VII cells were grown in Dulbecco’s Modified Eagle’s Medium Nutrient Mixture (DMEM-HAM’S F12) (Sigma-Aldrich) supplemented with 2 mM L-glutamine, 23 mM NaHCO3, 100 U/mL penicillin, 100 U/mL streptomycin 1% non-essential amino acids and 10% fetal bovine serum.
(§2) Cell cultures had been kept under the same conditions during the experiments. Cells were stored at 37 °C, 95% humidity, and 5% CO2 in an incubator. During the MTT-assay, different starter cell number was used because of the cell cycle differences; HaCaT was started with 10.000/well meanwhile SCC VII with 5000/well. After passage, 24 h was assured for the cells to the adhesion. Then incubated with the compounds for 48 h. The experiments were performed in 96 well plates.
(§3) For the dilution of different concentrations of nucleoside analogues were prepared with DMSO 1% (v/v) and DMEM / DMEM-F12/Ham’s F12 cell culture medium.
(§4) After three days of incubation in the cell culture flask, cells were trypsinised into single cell suspensions. Aliquots (200 μL) of each cell suspension were placed in wells of 96-well-plates (Biocenter, Szeged, Hungary). Preliminary tests were conducted with cell numbers 5000 (SCC-VII) and 10,000 (HaCaT) per well. We have been tested five concentrations of each nucleoside analogues (20-10-5-2.5-1.25 µg/mL). The nucleoside analogues were dissolved in DMSO (1 v/v%) and DMEM/ DMEM-F12/Ham’s F12 were added to the wells to produce the required concentrations and the cells were similarly incubated for a further 48 h.
(§5) MTT (Sigma Aldrich, Budapest, Hungary) solution (0.5 mg/mL in PBS) 100 µL was added to each well. The plates were incubated for 1–2 h at 37 ^◦C, the wells aspirated, and MTT formazan extracted with 100 µL of DMSO aided by gentle agitation on a shaker. After 10 min at room temperature, the absorbances were read at 570 nm by an automatic plate reader (WALLAC Victor 2 1420 spectrophotometer), the instrument having been blanked beforehand on a row to which cells had not been added. Percentage viability (respiratory competence) of the population of cells in each well was expressed as: (Absorbance of treated cells/Absorbance of control cells) × 100. IC50 values of the nucleoside analogues were determined by Graphpad.

[2] = system: HaCaT (human keratinocyte) cell line; test: MTT cell viability assay on HaCaT cells; assay type: cell-based; conditions: for IC50: Homo sapiens, HaCaT, 48 h; for HaCaT IC50: MTT, 48 h incubation, 10,000 cells/well, '-' = no cytotoxicity at 20 µg/mL
Procedure: as §1
The HaCaT cell line was derived from human skin, the cells spontaneously transformed in vitro during long time incubation. Cells were cultured in DMEM medium (Biocenter, Szeged, Hungary) containing 10% fetal bovine serum (FBS, Hyclon, Logan, UT) and 1% antibiotic-antimycotic mix (Penicillin–Streptomycin–Neomycin).
as §2, §3, §4, §5

Compound	SCC IC50 [1]	IC50 [1]	IC50 [2]	HaCaT IC50 [2]	SI (selectivity index) [1]
CC(=O)OC[C@H]1O[C@@H](SC[C@@H]2[C@@H](O[Si](C)(C)C(C)(C)C)[C@H](n3ccc(=O)[nH]c3=O)O[C@@H]2CO[Si](C)(C)C(C)(C)C)[C@H](OC(C)=O)[C@@H](OC(C)=O)[C@@H]1OC(C)=O [Compound 1]	no cytotoxic effect; also recorded: no cytotoxicity; also recorded: complete loss of activity	> 20 µg/mL	> 20 µg/mL	no cytotoxic effect; also recorded: no cytotoxicity; also recorded: complete loss of activity	–
CCCSC[C@@H]1[C@@H](O[Si](C)(C)C(C)(C)C)[C@H](n2ccc(=O)[nH]c2=O)O[C@@H]1CO[Si](C)(C)C(C)(C)C [Compound 2]	remarkable toxic effect	11.8 ± 0.22 µM	12.6 ± 0.22 µM	remarkable toxic effect	1.07
CC(=O)OC[C@H]1O[C@@H](SC[C@@H]2[C@@H](O[Si](C)(C)C(C)(C)C)[C@H](n3cc(C)c(=O)[nH]c3=O)O[C@@H]2CO[Si](C)(C)C(C)(C)C)[C@H](OC(C)=O)[C@@H](OC(C)=O)[C@@H]1OC(C)=O [Compound 3]	no cytotoxic effect; also recorded: no cytotoxicity; also recorded: complete loss of activity	> 20 µg/mL	22.4 ± 2.91 µM	quite toxic	–
CC(=O)OCC1OC(SCC2C(CO[Si](C)(C)C(C)(C)C)OC(n3cc(C)c(=O)[nH]c3=O)C2O[Si](C)(C)C(C)(C)C)C(OC(C)=O)C(OC(C)=O)C1OC(C)=O (stereo not drawn) [Compound 4]	no cytotoxic effect; also recorded: no cytotoxicity; also recorded: complete loss of activity	> 20 µg/mL	> 20 µg/mL	no cytotoxic effect; also recorded: no cytotoxicity; also recorded: complete loss of activity	–
CCCSC[C@@H]1[C@@H](O[Si](C)(C)C(C)(C)C)[C@H](n2cc(C)c(=O)[nH]c2=O)O[C@@H]1CO[Si](C)(C)C(C)(C)C [Compound 5, 1-[3’-Deoxy-3’-C-(n-propylsulfanylmethyl)-2’,5’-di-O-(tert-butyldimethylsilyl)-β-D-xylofuranosyl]-thymine]	remarkable toxic effect	15.2 ± 1 µM	22.2 ± 1.7 µM	remarkable toxic effect	1.46
Cc1cn([C@@H]2O[C@H](CO[Si](C)(C)C(C)(C)C)[C@@H](O)[C@H]2O[Si](C)(C)C(C)(C)C)c(=O)[nH]c1=O [Compound 6T, 2’,5’-di-O-tert-butyldimethylsilyl-ribothymidine]	remarkable toxicity	18.8 ± 0.74 µM	15.6 ± 4.45 µM	remarkable toxicity	0.83
CCSC[C@@H]1[C@@H](O[Si](C)(C)C(C)(C)C)[C@H](n2cc(C)c(=O)[nH]c2=O)O[C@@H]1CO[Si](C)(C)C(C)(C)C [Compound 8, 1-[3’-Deoxy-3’-C-(ethylsulfanylmethyl)-2’,5’-di-O-(tert-butyldimethylsilyl)-β-D-xylofuranosyl]-thymine]	–	15.5 ± 0.59 µM	16.9 ± 0.55 µM	–	1.09
Cc1cn([C@@H]2O[C@H](CO[Si](C)(C)C(C)(C)C)[C@H](CSC(C)C)[C@H]2O[Si](C)(C)C(C)(C)C)c(=O)[nH]c1=O [Compound 9, 1-[3’-Deoxy-3’-C-(i-propylsulfanylmethyl)-2’,5’-di-O-(tert-butyldimethylsilyl)-β-D-xylofuranosyl]-thymine]	–	15.2 ± 0.48 µM	22.7 ± 1.34 µM	–	1.49
Cc1cn([C@@H]2O[C@H](CO[Si](C)(C)C(C)(C)C)[C@H](CSCC(C)C)[C@H]2O[Si](C)(C)C(C)(C)C)c(=O)[nH]c1=O [Compound 11, 1-[3’-Deoxy-3’-C-(i-butylsulfanylmethyl)-2’,5’-di-O-(tert-butyldimethylsilyl)-β-D-xylofuranosyl]-thymine]	–	23.5 ± 0.12 µM	15.5 ± 2.14 µM	–	0.66
Cc1cn([C@@H]2O[C@H](CO[Si](C)(C)C(C)(C)C)[C@H](CSC(C)(C)C)[C@H]2O[Si](C)(C)C(C)(C)C)c(=O)[nH]c1=O [Compound 12, 1-[3’-Deoxy-3’-C-(t-butylsulfanylmethyl)-2’,5’-di-O-(tert-butyldimethylsilyl)-β-D-xylofuranosyl]-thymine]	–	31.1 ± 0.79 µM	> 34.9 µM	–	–
CCCCCCSC[C@@H]1[C@@H](O[Si](C)(C)C(C)(C)C)[C@H](n2cc(C)c(=O)[nH]c2=O)O[C@@H]1CO[Si](C)(C)C(C)(C)C [Compound 13, 1-[3’-Deoxy-3’-C-(n-hexylsulfanylmethyl)-2’,5’-di-O-(tert-butyldimethylsilyl)-β-D-xylofuranosyl]-thymine]	–	15.9 ± 0.32 µM	22.9 ± 0.57 µM	–	1.44
CCCCCCCCSC[C@@H]1[C@@H](O[Si](C)(C)C(C)(C)C)[C@H](n2cc(C)c(=O)[nH]c2=O)O[C@@H]1CO[Si](C)(C)C(C)(C)C [Compound 14, 1-[3’-Deoxy-3’-C-(n-octylsulfanylmethyl)-2’,5’-di-O-(tert-butyldimethylsilyl)-β-D-xylofuranosyl]-thymine]	–	26 ± 0.76 µM	26.4 ± 0.37 µM	–	1.02
CCCCCCCCCCCCSC[C@@H]1[C@@H](O[Si](C)(C)C(C)(C)C)[C@H](n2cc(C)c(=O)[nH]c2=O)O[C@@H]1CO[Si](C)(C)C(C)(C)C [Compound 15, 1-[3’-Deoxy-3’-C-(n-dodecylsulfanylmethyl)-2’,5’-di-O-(tert-butyldimethylsilyl)-β-D-xylofuranosyl]-thymine]	complete loss of activity	> 20 µg/mL	> 20 µg/mL	complete loss of activity	–
Cc1cn([C@@H]2O[C@H](CO[Si](C)(C)C(C)(C)C)[C@H](CSCc3ccccc3)[C@H]2O[Si](C)(C)C(C)(C)C)c(=O)[nH]c1=O [Compound 16, 1-[3’-Deoxy-3’-C-(benzylsulfanylmethyl)-2’,5’-di-O-(tert-butyldimethylsilyl)-β-D-xylofuranosyl]-thymine]	–	14.6 ± 0.19 µM	14.3 ± 0.36 µM	–	0.98
Cc1cn([C@@H]2O[C@H](CO[Si](C)(C)C(C)(C)C)[C@H](CSCCO)[C@H]2O[Si](C)(C)C(C)(C)C)c(=O)[nH]c1=O [Compound 17, 1-[3’-Deoxy-3’-C-(2-hydroxyethylsulfanylmethyl)-2’,5’-di-O-(tert-butyldimethylsilyl)-β-D-xylofuranosyl]-thymine]	–	16 ± 0.17 µM	14.6 ± 0.82 µM	–	0.91
CCCCSC[C@@H]1[C@@H](O[Si](C)(C)C(C)(C)C)[C@H](n2ccc(=O)[nH]c2=O)O[C@@H]1CO[Si](C)(C)C(C)(C)C [Compound 18, 1-[3’-Deoxy-3’-C-(n-butylsulfanylmethyl)-2’,5’-di-O-(tert-butyldimethylsilyl)-β-D-xylofuranosyl]-uracil]	–	10.9 ± 0.18 µM	14.4 ± 1.59 µM	–	1.32
CCSC[C@@H]1[C@@H](O)[C@H](n2cc(C)c(=O)[nH]c2=O)O[C@@H]1CO [Compound 19, 1-[3’-Deoxy-3’-C-(n-ethylsulfanylmethyl)-β-D-xylofuranosyl]-thymine]	did not show any cytotoxic activity; also recorded: no activity	> 20 µg/mL	> 20 µg/mL	did not show any cytotoxic activity; also recorded: no activity	–
CN(Cc1cnc2nc(N)nc(N)c2n1)c1ccc(C(=O)N[C@@H](CCC(=O)O)C(=O)O)cc1 [Methotrexate, reference compound]	–	216 ± 2.33 µM	290.4 ± 2.76 µM	–	–
